The values that follow come from patent US20220298225A1, “METHODS AND COMPOSITIONS FOR TREATING CANCER WITH COLLAGEN BINDING DRUG CARRIERS” (The University of Chicago, priority 2019, published 2022).

One data set is described as follows: B. Here is the method: Table printed on a drawing sheet, FIG. 2A-D
Blood plasma was collected at indicated time points. […] (B) Plasma half-lives of Dox were calculated using two-phase exponential decay: MFI (t)=Ae^−αt+Be^−βt. t½, α, fast clearance half-life; t½, β, slow clearance half-life. […] At the indicated time points, tumors were harvested, and the amount of Dox within the tumors was quantified (mean±SEM. n=5 for 2 h, n=7 for 24 h per group). […] 1 h after injection, tumors were harvested and fluorescence was analyzed by confocal microscopy. Tissues were also stained with DAPI and anti-CD31 antibody. Scale bar=100 μm. Representative images of 3 tumors, each. Two experimental replicates. Statistical analyses were done using ANOVA with Tukey's test. *p<0.05; **p<0.01; N.S.=not significant.

For data set [1] the following is noted: mouse models; cited from earlier work.
A further data set concerns MMTV-PyMT cells. Nature of the data set: Cellular uptake of Dox-conjugates (confocal microscopy). As to conditions: after 1 h of incubation, 50 μM equivalent of Dox. In kind it is cell-based, mouse. How it is done:
To evaluate the cellular uptake of Dox-conjugates, MMTV-PyMT cells were seeded in 96 well high content imaging plate (Corning) at 5000 cells/well and incubated overnight. […] After the incubation, cells were washed twice, treated with 75 nM of Lysotracker Deep Red and further incubated 30 min at 37° C. Cells were washed twice and observed by IX83 microscope (Olympus) with ×60 magnification. Images were processed using ImageJ software (NIH). Scale bar; 20 μm.

Data set [2] has as its system MMTV-PyMT breast cancer. Nature of the data set: Tumor-infiltrating lymphocytes by flow cytometry in MMTV-PyMT model. It is filed as in vivo, mouse. The note with it: 7 days after treatment, 5 mg/kg. How it is done: MMTV-PyMT model was prepared as described above. […] Mice were sacrificed on day 14. Cell suspensions were obtained from each tumor as described previously (9). Tumors were harvested and digested in Dulbecco's Modified Eagle Medium (DMEM) supplemented with 2% FBS, 2 mg/mL collagenase D and 40 μg/mL DNase I (Roche) for 30 min at 37° C. Single-cell suspensions were obtained by gently disrupting the organs through a 70 μm cell strainer. Red blood cells were lysed with ACK lysing buffer (Quality Biological). Fixable live/dead cell discrimination was performed using Fixable Viability Dye eFluor 455 (eBioscience) according to the manufacturer's instructions. Following a washing step, cells were stained with specific antibodies for 20 min on ice prior to fixation. Following antibodies were used to stain the cells: CD3 (145-2C11, BD Biosciences), CD4 (RM4-5, BD Biosciences), CD8α (53-6.7, BD Biosciences), CD45 (30-F11, BD Biosciences), and NK1.1 (PK136, BD Biosciences). All flow cytometric analyses were done using a Fortessa flow cytometer (BD Biosciences) and analyzed using FlowJo software (Tree Star).

Data set [3] deals with MMTV-PyMT breast cancer. Nature of the data set: MMTV-PyMT murine breast cancer model, anti-tumor efficacy. It is filed as in vivo, mouse. As to conditions: single i.v. injection 5 mg/kg Dox basis on day 7.
Experimental: The MMTV-PyMT murine breast cancer model was prepared as described previously (9). A total of 5×10^5 MMTV-PyMT cells suspended in 50 μL of PBS were injected subcutaneously into the mammary gland on the right side of each mouse. […] Tumors were measured with a digital caliper at indicated time points, and volumes were calculated as ellipsoids, where V=4/3×3.14×depth/2×width/2×height/2. Mice were sacrificed when tumor volume had reached over 500 mm^3 or when active ulceration was observed. For the therapeutic experiment, FVB mice originated from Charles River origin were used. […] The proportion of mice from different providers was equalized among all groups.
Data set [4] can be described thus: Toxicity profiles in tumor-free FVB mice. The note with it: 20 mg/kg Dox basis. How it is done:
Blood samples were collected from each mouse in EDTA-coated tube by submandibular bleeding on day 3 and day 6 after injection for plasma cytokine analysis and hematological analysis. Body weight of each mouse was measured at indicated time points. On day 16, mice were sacrificed and organs were harvested. Spleens were weighed, and the other organs were used for histological analysis. Mice were sacrificed when more than 15% decrease of initial body weight was observed.
Blood samples were analyzed using COULTER Ac⋅T 5diff CP hematology analyzer (Beckman coulter) according to the manufacturer's instructions.
Blood plasma was collected from whole blood sample as described above and stored at −20° C. until use. Cytokine concentrations in plasma were measured using Ready-SET-Go! ELISA kits (eBioscience) and Can Get Signal solution (TOYOBO) according to manufacturer's instructions.
Organs were fixed with 2% paraformaldehyde in PBS overnight. After embedding in paraffin, blocks were cut into 5 μm sections, followed by H&E staining.

Turning to `COc1cccc2c1C(=O)c1c(O)c3c(c(O)c1C2=O)C[C@@](O)(/C(CO)=N/NC(=O)CCCCCN1C(=O)C=CC1=O)C[C@@H]3O[C@H]1C[C@H](N)[C@H](O)[C@H](C)O1` [Aldoxorubicin], in the data set “B”, the “t½, α” value came out at 2.4 ± 0.168 min and the “t½, β” value came to 22.6 ± 3.3 h.
Take `COc1cccc2c1C(=O)c1c(O)c3c(c(O)c1C2=O)C[C@@](O)(C(=O)CO)C[C@@H]3O[C@H]1C[C@H](N)[C@H](O)[C@H](C)O1` [Dox, Doxorubicin]: in data set [1], the “cumulative dose that irreversibly damages cardiac tissue” value is 15 mg/kg. The “intracellular localization of Dox fluorescence” value with MMTV-PyMT cells is “detected in cytoplasm, intracellular acidic organelles, and preferentially in the nucleus”.
With `COc1cccc2c1C(=O)c1c(O)c3c(c(O)c1C2=O)C[C@@](O)(/C(CO)=N/NC(=O)CCCCCN1C(=O)C=CC1=O)C[C@@H]3O[C@H]1C[C@H](N)[C@H](O)[C@H](C)O1` [aldoxorubicin], in the data set with MMTV-PyMT breast cancer [2], the “number of CD4+ T cells within the tumor per unit tumor mass” value was “not”, the “number of CD8+ T cells within the tumor per unit tumor mass” value is “not” and the “number of NK cells within the tumor per unit tumor mass” value is listed as “not”. Further, the tumor growth entry in the data set with MMTV-PyMT breast cancer [3] was “did not”. In addition, in data set [4] (day 3), the “plasma concentration of IFN-γ” value is recorded as “increased”, the “plasma concentration of IL-5” value is “increased”, the “plasma concentration of IL-6” value was “increased” and the “plasma concentration of TNF-α” value is on record as “increased”. Moreover, the “white blood cell (WBC) counts” value in data set [4] (day 3) was “significant decrease”. For the same molecule, in data set [4] (day 6), the hematocrit result is “significant decrease”, the hemoglobin concentration result is “significant decrease” and the “red blood cell (RBC) counts” value is “significant decrease”. The “splenomegaly (spleen weight)” value in data set [4] (day 16) is reported as “induced splenomegaly”.
